Among the data in ChEMBL document CHEMBL3271985, “Partition coefficients and surface areas of some alkylbenzenes” (J Med Chem, 1976) are logP values, retold here.

This data set can be described thus: Octanol-water partition coefficient, log P of the compound.
`c1ccc2c(c1)CCCC2`: the logP was 3.52.
The result for `c1ccc(C2CCCC2)cc1` reads 4.27; that for `c1ccc(C2CCCCC2)cc1`, 4.64; that for `c1ccc(C23CC4CC(CC(C4)C2)C3)cc1`, 5.43.
The result for `c1cc2ccc1CCc1ccc(cc1)CC2` reads 2.33; that for `c1ccc2c(c1)CCC2`, 3.33; that for `CC(C)c1ccccc1` [ISOPROPYLBENZENE], 3.66.
The result for `Cc1cccc(C)c1` [M-XYLENE] reads 3.2; that for `Cc1ccccc1C` [O-XYLENE], 3.12.
Turning to `Cc1ccc(C)cc1` [P-XYLENE], the logP came to 3.15.
Consider `CC(C)(C)c1ccccc1` [tert-Butylbenzene], for which the logP is 4.11.
